# Measured values from paper PMC4490784, “Compensatory induction of MYC expression by sustained CDK9 inhibition via a BRD4-dependent mechanism” (eLife, 2015).
# Key:
# Assay in all cases: KINOMEscan binding assay
# [1] = molecular target: T1, ABL1(F317I)-nonphosphorylated (Homo sapiens, UniProt P00519, F317I); details: read-out: % Retention on Solid Support
# T1 construct: purchased DiscoveRx KINOMEscan
# Experimental: (§1) As there are no commercial or in-house kinase assays available for CDK3, CDK5, CDK11 and CDK13, the inhibitory abilities of i-CDK9 toward these CDKs were thus evaluated in the DiscoveRx KINOMEscan assay, which is based on a proprietary active site-directed competition-binding platform ([Fabian et al., 2005]).
# (§2) The inhibitory activity of i-CDK9 for CDK1-CycB (Upstate/Millipore), CDK2-CycA (Invitrogen), CDK4-CycD1 (Novartis), CDK7-CycH-MAT1 (Invitrogen), and CDK9-CycT1 (Invitrogen) was assessed in the AlphaScreen (PerkinElmer, Inc)-based kinase assay developed at Novartis. Briefly, each CDK–cyclin pair was pre-incubated with i-CDK9 for 15 min, followed by addition of kinase substrates (ELK for CDK1 and CDK2, RB for CDK4, and CDK7tide for CDK7 and CDK9). The mixture was incubated at room temperature for additional 4–5 hr. The reaction was stopped and read on Envision (PerkinElmer, Inc). Selectivity against a large panel of over 400 kinases was evaluated using the KINOMEscan platform (DiscoveRx, CA) employing a proprietary active site-directed competition binding assay ([Fabian et al., 2005]). The assay was conducted at two different concentrations of i-CDK9 (1 and 10 µM) by DiscoveRx.
# [2] = molecular target: T2, ABL1(Q252H)-nonphosphorylated (Homo sapiens, UniProt P00519, Q252H); details: read-out: % Retention on Solid Support
# T2 construct: purchased DiscoveRx KINOMEscan
# Experimental: as §1, §2
# ABL1-nonphosphorylated = molecular target: T3, ABL1-nonphosphorylated (Homo sapiens, UniProt P00519); details: read-out: % Retention on Solid Support
# T3 construct: purchased DiscoveRx KINOMEscan
# Experimental: as §1, §2
# ABL1-phosphorylated = molecular target: T4, ABL1-phosphorylated (Homo sapiens, UniProt P00519); details: 1 µM i-CDK9; read-out: % Retention on Solid Support
# T4 construct: purchased DiscoveRx KINOMEscan
# Experimental: as §1, §2
# ACVR2A = molecular target: T5, ACVR2A (Homo sapiens, UniProt P27037); details: read-out: % Retention on Solid Support
# T5 construct: purchased DiscoveRx KINOMEscan
# Experimental: as §1, §2
# AURKC = molecular target: T6, AURKC (Homo sapiens, UniProt Q9UQB9); details: read-out: % Retention on Solid Support
# T6 construct: purchased DiscoveRx KINOMEscan
# T6 sequence (Q9UQB9 whole entry): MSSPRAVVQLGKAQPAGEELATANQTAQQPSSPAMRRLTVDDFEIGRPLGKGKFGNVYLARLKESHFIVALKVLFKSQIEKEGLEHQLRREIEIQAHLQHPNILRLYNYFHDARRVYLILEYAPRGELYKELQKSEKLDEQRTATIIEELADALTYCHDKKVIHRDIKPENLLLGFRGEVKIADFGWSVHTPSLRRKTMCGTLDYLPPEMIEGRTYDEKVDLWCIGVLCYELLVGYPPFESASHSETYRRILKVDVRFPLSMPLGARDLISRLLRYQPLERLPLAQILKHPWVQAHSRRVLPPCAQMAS
# Experimental: as §1, §2
# CSNK1A1L = molecular target: T7, CSNK1A1L (Homo sapiens, UniProt Q8N752); details: read-out: % Retention on Solid Support
# T7 construct: purchased DiscoveRx KINOMEscan
# T7 sequence (Q8N752 whole entry): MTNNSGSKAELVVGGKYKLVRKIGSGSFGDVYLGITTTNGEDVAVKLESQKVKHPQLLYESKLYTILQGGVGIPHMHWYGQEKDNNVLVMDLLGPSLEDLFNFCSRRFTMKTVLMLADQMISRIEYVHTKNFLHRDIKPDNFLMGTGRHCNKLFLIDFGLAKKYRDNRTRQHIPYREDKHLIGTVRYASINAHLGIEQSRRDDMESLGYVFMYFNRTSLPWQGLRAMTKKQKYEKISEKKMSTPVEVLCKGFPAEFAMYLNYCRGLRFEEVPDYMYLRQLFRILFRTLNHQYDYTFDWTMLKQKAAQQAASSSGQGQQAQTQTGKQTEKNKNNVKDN
# Experimental: as §1, §2
# DCAMKL2 = molecular target: T8, DCAMKL2 (Homo sapiens, UniProt Q8N568); details: read-out: % Retention on Solid Support
# T8 construct: purchased DiscoveRx KINOMEscan
# Experimental: as §1, §2
# DCAMKL3 = molecular target: T9, DCAMKL3 (Homo sapiens, UniProt Q9C098); details: read-out: % Retention on Solid Support
# T9 construct: purchased DiscoveRx KINOMEscan
# Experimental: as §1, §2
# DDR1 = molecular target: T10, DDR1 (Homo sapiens, UniProt Q08345); details: read-out: % Retention on Solid Support
# T10 construct: purchased DiscoveRx KINOMEscan
# T10 sequence (Q08345 19-913): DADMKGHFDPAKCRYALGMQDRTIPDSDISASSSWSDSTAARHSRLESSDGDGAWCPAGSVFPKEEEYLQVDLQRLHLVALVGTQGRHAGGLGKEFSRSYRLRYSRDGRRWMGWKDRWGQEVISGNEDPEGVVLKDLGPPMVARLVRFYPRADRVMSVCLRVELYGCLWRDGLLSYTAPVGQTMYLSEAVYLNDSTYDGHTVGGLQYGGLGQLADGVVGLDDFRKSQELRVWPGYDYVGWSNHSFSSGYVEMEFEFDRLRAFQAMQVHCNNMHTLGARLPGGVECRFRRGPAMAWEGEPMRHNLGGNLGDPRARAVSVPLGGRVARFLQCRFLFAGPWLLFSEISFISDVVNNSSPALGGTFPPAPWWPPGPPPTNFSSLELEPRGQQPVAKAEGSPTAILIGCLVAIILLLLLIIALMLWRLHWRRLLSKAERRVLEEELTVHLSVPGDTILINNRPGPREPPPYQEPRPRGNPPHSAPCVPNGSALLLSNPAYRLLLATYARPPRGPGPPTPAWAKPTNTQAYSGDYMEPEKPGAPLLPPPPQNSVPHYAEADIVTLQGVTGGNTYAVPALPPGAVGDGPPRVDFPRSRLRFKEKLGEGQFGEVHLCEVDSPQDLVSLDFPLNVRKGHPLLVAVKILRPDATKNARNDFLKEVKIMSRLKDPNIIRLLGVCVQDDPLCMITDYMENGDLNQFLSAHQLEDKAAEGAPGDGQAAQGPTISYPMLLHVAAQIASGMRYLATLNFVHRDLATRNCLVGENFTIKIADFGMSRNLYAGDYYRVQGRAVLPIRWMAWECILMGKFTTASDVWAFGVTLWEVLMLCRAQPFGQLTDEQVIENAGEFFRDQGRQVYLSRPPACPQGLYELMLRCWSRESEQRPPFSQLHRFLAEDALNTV
# Experimental: as §1, §2
# EPHA3 = molecular target: T11, EPHA3 (Homo sapiens, UniProt P29320); details: read-out: % Retention on Solid Support
# T11 construct: purchased DiscoveRx KINOMEscan
# Experimental: as §1, §2
# ERK5 = molecular target: T12, ERK5 (Homo sapiens, UniProt Q13164); details: read-out: % Retention on Solid Support
# T12 construct: purchased DiscoveRx KINOMEscan
# T12 sequence (Q13164 whole entry): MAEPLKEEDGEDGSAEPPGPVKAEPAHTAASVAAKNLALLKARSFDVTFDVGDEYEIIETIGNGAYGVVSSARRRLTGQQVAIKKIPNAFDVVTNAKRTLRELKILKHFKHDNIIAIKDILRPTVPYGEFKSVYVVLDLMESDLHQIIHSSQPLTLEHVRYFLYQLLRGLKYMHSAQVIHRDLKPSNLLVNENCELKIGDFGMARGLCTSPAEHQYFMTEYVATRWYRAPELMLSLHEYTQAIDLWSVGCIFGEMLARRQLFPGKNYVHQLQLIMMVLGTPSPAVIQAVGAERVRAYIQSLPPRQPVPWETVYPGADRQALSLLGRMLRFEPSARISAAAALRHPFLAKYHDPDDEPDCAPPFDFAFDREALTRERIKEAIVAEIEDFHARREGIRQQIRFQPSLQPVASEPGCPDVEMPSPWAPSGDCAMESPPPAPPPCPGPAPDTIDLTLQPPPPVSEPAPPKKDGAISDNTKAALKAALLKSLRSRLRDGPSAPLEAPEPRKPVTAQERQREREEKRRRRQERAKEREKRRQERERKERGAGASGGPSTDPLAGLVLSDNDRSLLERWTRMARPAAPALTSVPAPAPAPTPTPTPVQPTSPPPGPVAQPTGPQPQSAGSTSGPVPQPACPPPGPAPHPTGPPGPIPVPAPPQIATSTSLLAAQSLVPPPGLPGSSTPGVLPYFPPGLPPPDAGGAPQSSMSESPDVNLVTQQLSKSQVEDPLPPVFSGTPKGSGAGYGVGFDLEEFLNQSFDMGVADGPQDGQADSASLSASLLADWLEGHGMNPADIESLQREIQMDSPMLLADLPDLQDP
# Experimental: as §1, §2
# FLT3(D835Y) = molecular target: T13, FLT3(D835Y) (Homo sapiens, UniProt P36888, D835Y); details: read-out: % Retention on Solid Support
# T13 construct: purchased DiscoveRx KINOMEscan
# Experimental: as §1, §2
# FLT3(N841I) = molecular target: T14, FLT3(N841I) (Homo sapiens, UniProt P36888, N841I); details: read-out: % Retention on Solid Support
# T14 construct: purchased DiscoveRx KINOMEscan
# Experimental: as §1, §2
# HIPK4 = molecular target: T15, HIPK4 (Homo sapiens, UniProt Q8NE63); details: read-out: % Retention on Solid Support
# T15 construct: purchased DiscoveRx KINOMEscan
# Experimental: as §1, §2
# IKK-beta = molecular target: T16, IKK-beta (Homo sapiens, UniProt O14920); details: read-out: % Retention on Solid Support
# T16 construct: purchased DiscoveRx KINOMEscan
# Experimental: as §1, §2
# MARK1 = molecular target: T17, MARK1 (Homo sapiens, UniProt Q9P0L2); details: read-out: % Retention on Solid Support
# T17 construct: purchased DiscoveRx KINOMEscan
# Experimental: as §1, §2
# MLCK = molecular target: T18, MLCK (Homo sapiens, UniProt Q32MK0); details: read-out: % Retention on Solid Support
# T18 construct: purchased DiscoveRx KINOMEscan
# Experimental: as §1, §2
# MRCKA = molecular target: T19, MRCKA (Homo sapiens, UniProt Q5VT25); details: read-out: % Retention on Solid Support
# T19 construct: purchased DiscoveRx KINOMEscan
# Experimental: as §1, §2
# MST2 = molecular target: T20, MST2 (Homo sapiens, UniProt Q13188); details: read-out: % Retention on Solid Support
# T20 construct: purchased DiscoveRx KINOMEscan
# Experimental: as §1, §2
# NEK2 = molecular target: T21, NEK2 (Homo sapiens, UniProt P51955); details: read-out: % Retention on Solid Support
# T21 construct: purchased DiscoveRx KINOMEscan
# T21 sequence (P51955 whole entry): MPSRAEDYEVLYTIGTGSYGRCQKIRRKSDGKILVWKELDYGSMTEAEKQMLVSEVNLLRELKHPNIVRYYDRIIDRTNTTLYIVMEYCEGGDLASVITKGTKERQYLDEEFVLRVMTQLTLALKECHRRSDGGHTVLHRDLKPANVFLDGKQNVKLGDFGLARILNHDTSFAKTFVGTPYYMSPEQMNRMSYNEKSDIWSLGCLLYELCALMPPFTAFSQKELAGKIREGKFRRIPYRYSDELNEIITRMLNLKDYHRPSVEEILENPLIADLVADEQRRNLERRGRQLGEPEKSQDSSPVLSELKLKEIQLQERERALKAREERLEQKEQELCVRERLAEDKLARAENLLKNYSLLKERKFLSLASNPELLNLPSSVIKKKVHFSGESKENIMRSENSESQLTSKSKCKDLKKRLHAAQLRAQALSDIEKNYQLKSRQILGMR
# Experimental: as §1, §2
# PIK3CB = molecular target: T22, PIK3CB (Homo sapiens, UniProt P42338); details: read-out: % Retention on Solid Support
# T22 construct: purchased DiscoveRx KINOMEscan
# Experimental: as §1, §2
# PIP5K2C = molecular target: T23, PIP5K2C (Homo sapiens, UniProt Q8TBX8); details: 1 µM i-CDK9; read-out: % Retention on Solid Support
# T23 construct: purchased DiscoveRx KINOMEscan
# Experimental: as §1, §2
# PRKCH = molecular target: T24, PRKCH (Homo sapiens, UniProt P24723); details: read-out: % Retention on Solid Support
# T24 construct: purchased DiscoveRx KINOMEscan
# Experimental: as §1, §2
# PRKD3 = molecular target: T25, PRKD3 (Homo sapiens, UniProt O94806); details: read-out: % Retention on Solid Support
# T25 construct: purchased DiscoveRx KINOMEscan
# T25 sequence (O94806 whole entry): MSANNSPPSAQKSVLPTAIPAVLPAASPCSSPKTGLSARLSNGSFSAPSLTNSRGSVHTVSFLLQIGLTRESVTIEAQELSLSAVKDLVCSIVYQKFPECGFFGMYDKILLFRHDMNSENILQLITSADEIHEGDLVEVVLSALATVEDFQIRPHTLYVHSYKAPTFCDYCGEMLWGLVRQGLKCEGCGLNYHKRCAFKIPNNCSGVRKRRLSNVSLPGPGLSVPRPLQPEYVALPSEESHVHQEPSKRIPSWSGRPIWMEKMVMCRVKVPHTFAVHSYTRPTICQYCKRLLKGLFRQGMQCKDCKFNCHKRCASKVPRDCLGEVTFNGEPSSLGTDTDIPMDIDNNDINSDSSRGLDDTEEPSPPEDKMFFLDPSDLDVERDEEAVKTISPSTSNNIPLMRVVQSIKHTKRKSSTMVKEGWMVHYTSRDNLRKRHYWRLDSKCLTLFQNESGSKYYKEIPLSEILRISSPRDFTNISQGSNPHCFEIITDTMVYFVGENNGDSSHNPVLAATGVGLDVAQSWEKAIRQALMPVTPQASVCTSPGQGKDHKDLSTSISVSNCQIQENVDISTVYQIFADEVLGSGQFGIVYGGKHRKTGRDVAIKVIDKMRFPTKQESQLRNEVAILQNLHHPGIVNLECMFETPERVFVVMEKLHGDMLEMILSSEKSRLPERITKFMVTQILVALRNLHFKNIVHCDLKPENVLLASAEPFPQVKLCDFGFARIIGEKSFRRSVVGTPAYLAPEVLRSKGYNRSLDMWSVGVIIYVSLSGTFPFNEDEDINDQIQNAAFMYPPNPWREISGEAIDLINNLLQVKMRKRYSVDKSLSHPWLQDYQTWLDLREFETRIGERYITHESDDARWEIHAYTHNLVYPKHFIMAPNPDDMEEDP
# Experimental: as §1, §2
# PRP4 = molecular target: T26, PRP4 (Homo sapiens, UniProt Q13523); details: read-out: % Retention on Solid Support
# T26 construct: purchased DiscoveRx KINOMEscan
# T26 sequence (Q13523 whole entry): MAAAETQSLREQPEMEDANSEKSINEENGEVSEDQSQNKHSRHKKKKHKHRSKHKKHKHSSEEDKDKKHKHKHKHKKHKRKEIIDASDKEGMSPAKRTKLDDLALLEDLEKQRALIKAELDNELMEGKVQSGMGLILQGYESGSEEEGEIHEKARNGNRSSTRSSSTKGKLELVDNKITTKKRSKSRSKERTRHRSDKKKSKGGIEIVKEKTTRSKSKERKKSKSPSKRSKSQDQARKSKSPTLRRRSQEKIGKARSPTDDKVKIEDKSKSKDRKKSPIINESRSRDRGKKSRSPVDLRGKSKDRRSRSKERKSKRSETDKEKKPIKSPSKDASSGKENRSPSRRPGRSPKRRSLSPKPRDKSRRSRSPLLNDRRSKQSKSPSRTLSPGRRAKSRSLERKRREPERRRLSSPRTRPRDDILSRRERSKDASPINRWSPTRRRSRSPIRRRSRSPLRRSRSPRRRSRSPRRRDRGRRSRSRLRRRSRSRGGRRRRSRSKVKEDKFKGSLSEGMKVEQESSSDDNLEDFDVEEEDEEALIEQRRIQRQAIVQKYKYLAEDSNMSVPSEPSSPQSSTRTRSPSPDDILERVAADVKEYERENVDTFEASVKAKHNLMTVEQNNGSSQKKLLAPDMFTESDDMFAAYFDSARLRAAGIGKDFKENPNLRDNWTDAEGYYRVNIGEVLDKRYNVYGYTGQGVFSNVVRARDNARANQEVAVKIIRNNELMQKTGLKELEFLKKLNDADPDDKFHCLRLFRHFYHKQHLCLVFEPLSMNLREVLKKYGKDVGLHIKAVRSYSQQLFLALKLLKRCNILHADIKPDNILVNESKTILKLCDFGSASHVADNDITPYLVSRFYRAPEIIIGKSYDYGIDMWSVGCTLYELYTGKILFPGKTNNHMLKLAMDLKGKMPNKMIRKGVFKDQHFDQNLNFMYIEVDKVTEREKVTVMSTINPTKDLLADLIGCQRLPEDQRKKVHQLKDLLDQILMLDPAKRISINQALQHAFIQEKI
# Experimental: as §1, §2
# RIPK2 = molecular target: T27, RIPK2 (Homo sapiens, UniProt O43353); details: read-out: % Retention on Solid Support
# T27 construct: purchased DiscoveRx KINOMEscan
# Experimental: as §1, §2
# SNARK = molecular target: T28, SNARK (Homo sapiens, UniProt Q9H093)
# T28 construct: purchased DiscoveRx KINOMEscan
# Experimental: as §1, §2
# SgK110 = molecular target: T29, SgK110 (Homo sapiens, UniProt P0C264); details: read-out: % Retention on Solid Support
# T29 construct: purchased DiscoveRx KINOMEscan
# Experimental: as §1, §2
# TEC = molecular target: T30, TEC (Homo sapiens, UniProt P42680); details: read-out: % Retention on Solid Support
# T30 construct: purchased DiscoveRx KINOMEscan
# Experimental: as §1, §2
smiles,measurement,setting,value
"N[C@H]1CC[C@H](Nc2cc(-c3cccc(NCc4cccc(F)c4)n3)c(Cl)cn2)CC1 [i-CDK9, N2′-(trans-4-aminocyclohexyl)-5′-chloro-N6-(3-fluorobenzyl)-2,4′-bipyridine-2′,6-diamine]",remaining binding at 1 µM,[1]; 1 µM i-CDK9,99%
same,remaining binding at 10 µM,[1]; 10 µM i-CDK9,75%
same,remaining binding at 1 µM,[2]; 1 µM i-CDK9,55%
same,remaining binding at 10 µM,[2]; 10 µM i-CDK9,91%
same,remaining binding at 1 µM,ABL1-nonphosphorylated; 1 µM i-CDK9,81%
same,remaining binding at 10 µM,ABL1-nonphosphorylated; 10 µM i-CDK9,100%
same,remaining binding at 1 µM,ABL1-phosphorylated,67%
same,remaining binding at 1 µM,ACVR2A; 1 µM i-CDK9,98%
same,remaining binding at 10 µM,ACVR2A; 10 µM i-CDK9,91%
same,remaining binding at 1 µM,AURKC; 1 µM i-CDK9,100%
same,remaining binding at 10 µM,AURKC; 10 µM i-CDK9,71%
same,remaining binding at 1 µM,CSNK1A1L; 1 µM i-CDK9,97%
same,remaining binding at 10 µM,CSNK1A1L; 10 µM i-CDK9,100%
same,remaining binding at 1 µM,DCAMKL2; 1 µM i-CDK9,100%
same,remaining binding at 10 µM,DCAMKL2; 10 µM i-CDK9,65%
same,remaining binding at 1 µM,DCAMKL3; 1 µM i-CDK9,100%
same,remaining binding at 10 µM,DCAMKL3; 10 µM i-CDK9,63%
same,remaining binding at 1 µM,DDR1; 1 µM i-CDK9,100%
same,remaining binding at 10 µM,DDR1; 10 µM i-CDK9,92%
same,remaining binding at 1 µM,EPHA3; 1 µM i-CDK9,85%
same,remaining binding at 10 µM,EPHA3; 10 µM i-CDK9,100%
same,remaining binding at 1 µM,ERK5; 1 µM i-CDK9,100%
same,remaining binding at 10 µM,ERK5; 10 µM i-CDK9,92%
same,remaining binding at 1 µM,FLT3(D835Y); 1 µM i-CDK9,100%
same,remaining binding at 10 µM,FLT3(D835Y); 10 µM i-CDK9,68%
same,remaining binding at 1 µM,FLT3(N841I); 1 µM i-CDK9,48%
same,remaining binding at 10 µM,FLT3(N841I); 10 µM i-CDK9,72%
same,remaining binding at 1 µM,HIPK4; 1 µM i-CDK9,40%
same,remaining binding at 10 µM,HIPK4; 10 µM i-CDK9,3.2%
same,remaining binding at 1 µM,IKK-beta; 1 µM i-CDK9,100%
same,remaining binding at 10 µM,IKK-beta; 10 µM i-CDK9,87%
same,remaining binding at 1 µM,MARK1; 1 µM i-CDK9,99%
same,remaining binding at 10 µM,MARK1; 10 µM i-CDK9,100%
same,remaining binding at 1 µM,MLCK; 1 µM i-CDK9,100%
same,remaining binding at 10 µM,MLCK; 10 µM i-CDK9,90%
same,remaining binding at 1 µM,MRCKA; 1 µM i-CDK9,100%
same,remaining binding at 10 µM,MRCKA; 10 µM i-CDK9,100%
same,remaining binding at 1 µM,MST2; 1 µM i-CDK9,72%
same,remaining binding at 10 µM,MST2; 10 µM i-CDK9,100%
same,remaining binding at 1 µM,NEK2; 1 µM i-CDK9,77%
same,remaining binding at 10 µM,NEK2; 10 µM i-CDK9,100%
same,remaining binding at 1 µM,PIK3CB; 1 µM i-CDK9,68%
same,remaining binding at 10 µM,PIK3CB; 10 µM i-CDK9,84%
same,remaining binding at 1 µM,PIP5K2C,100%
same,remaining binding at 1 µM,PRKCH; 1 µM i-CDK9,83%
same,remaining binding at 10 µM,PRKCH; 10 µM i-CDK9,80%
same,remaining binding at 1 µM,PRKD3; 1 µM i-CDK9,73%
same,remaining binding at 10 µM,PRKD3; 10 µM i-CDK9,14%
same,remaining binding at 1 µM,PRP4; 1 µM i-CDK9,14%
same,remaining binding at 10 µM,PRP4; 10 µM i-CDK9,100%
same,remaining binding at 1 µM,RIPK2; 1 µM i-CDK9,65%
same,remaining binding at 10 µM,RIPK2; 10 µM i-CDK9,77%
same,% Retention on Solid Support,SNARK; 1 µM i-CDK9,100%
same,% Retention on Solid Support,SNARK; 10 µM i-CDK9,87%
same,remaining binding at 1 µM,SgK110; 1 µM i-CDK9,72%
same,remaining binding at 10 µM,SgK110; 10 µM i-CDK9,100%
same,remaining binding at 1 µM,TEC; 1 µM i-CDK9,99%
same,remaining binding at 10 µM,TEC; 10 µM i-CDK9,100%
